Reference: patent US20100099314A1, “IONIC LIQUIDS DERIVED FROM SURFACTANTS” (priority 2004, published 2010)

Experiment: Water Miscibility Test
Format: physicochemical
Details: 0.5 g ionic liquid and 4.5 g de-ionized water, sonicated 1.5 hours; miscible if homogenous transparent system within 15 minutes of standing
Method: The water miscibility of an ionic liquid is measured by the following water miscibility test. A mixture of 0.5 g ionic liquid and 4.5 g de-ionized water are sonicated in a Bransonic Ultrasonic Bath (model# 1210R-MTH, 50/60 Hz, 117 volts, 1.3 AMPS) according to manufacture's specifications for 1.5 hours. Thereafter, if a homogenous transparent system results within 15 minutes of standing without agitation, then the ionic liquid is water miscible.

| Structure (SMILES) | Water Miscible? |
| --- | --- |
| CC(C)CC(C)CC(CC(C)C)OCCOCCOCCOS(=O)(=O)[O-].CCCCCCCCCCCC[N+](C)(C)O (centres unmarked) [Example 1, N-dodecyl-N,N-dimethylamine N-oxide 2,4,8-trimethylnonyl-6-triethoxysulfate] | No |
| CCCCCCCCCCCCOCCOS(=O)(=O)[O-].CCCCCCCCCCCC[N+](C)(C)O [Example 2, N-dodecyl-N,N-dimethylamine N-oxide dodecylethoxysulfate] | No |
